Measured values from ChEMBL document CHEMBL3259801, “Design and synthesis of new vancomycin derivatives” (Bioorg Med Chem Lett, 2014).
Values after ≈ are worked out from the molar mass of the structure shown.

Experiments:
[1] = system: Staphylococcus aureus; test: Antibacterial activity against vancomycin-intermediate resistant Staphylococcus aureus Mu50 assessed as inhibition of bacterial growth after 16 hrs; type: functional, organism-based; conditions: Mu50, 16 h
[2] = system: Staphylococcus aureus; test: Antibacterial activity against vancomycin-sensitive Staphylococcus aureus Newman assessed as inhibition of bacterial growth after 16 hrs; type: functional, organism-based

Structure (SMILES): CN[C@H](CC(C)C)C(=O)N[C@H]1C(=O)N[C@@H](CC(N)=O)C(=O)N[C@H]2C(=O)N[C@H]3C(=O)N[C@H](C(=O)N[C@H](C(=O)O)c4cc(O)cc(O)c4-c4cc3ccc4O)[C@H](O)c3ccc(c(Cl)c3)Oc3cc2cc(c3O[C@@H]2O[C@H](CO)[C@@H](O)[C@H](O)[C@H]2O[C@H]2C[C@](C)(NCC(OCc3ccc(-c4ccc(Cl)cc4)cc3)C(=O)O)[C@H](O)[C@H](C)O2)Oc2ccc(cc2Cl)[C@H]1O (stereo not given in full)
- IC50 [1]: 2 µg/mL (≈ 1.15 µM)
- IC50 [2]: < 0.125 µg/mL

Structure (SMILES): CCCCCCOC(CN[C@@]1(C)C[C@H](O[C@H]2[C@H](Oc3c4cc5cc3Oc3ccc(cc3Cl)[C@@H](O)[C@@H](NC(=O)[C@@H](CC(C)C)NC)C(=O)N[C@@H](CC(N)=O)C(=O)N[C@H]5C(=O)N[C@H]3C(=O)N[C@H](C(=O)N[C@H](C(=O)O)c5cc(O)cc(O)c5-c5cc3ccc5O)[C@H](O)c3ccc(c(Cl)c3)O4)O[C@H](CO)[C@@H](O)[C@@H]2O)O[C@@H](C)[C@H]1O)C(=O)OC (stereo not given in full)
- IC50 [1]: 4 µg/mL (≈ 2.45 µM)
- IC50 [2]: 2 µg/mL (≈ 1.22 µM)

Structure (SMILES): CN[C@H](CC(C)C)C(=O)N[C@H]1C(=O)N[C@@H](CC(N)=O)C(=O)N[C@H]2C(=O)N[C@H]3C(=O)N[C@H](C(=O)N[C@H](C(=O)O)c4cc(O)cc(O)c4-c4cc3ccc4O)[C@H](O)c3ccc(c(Cl)c3)Oc3cc2cc(c3O[C@@H]2O[C@H](CO)[C@@H](O)[C@H](O)[C@H]2O[C@H]2C[C@](C)(NCC(OCc3ccccc3)C(=O)O)[C@H](O)[C@H](C)O2)Oc2ccc(cc2Cl)[C@H]1O (stereo not given in full)
- IC50 [1]: 64 µg/mL (≈ 39.3 µM)
- IC50 [2]: 16 µg/mL (≈ 9.83 µM)

Structure (SMILES): CCCCOC(CN[C@@]1(C)C[C@H](O[C@H]2[C@H](Oc3c4cc5cc3Oc3ccc(cc3Cl)[C@@H](O)[C@@H](NC(=O)[C@@H](CC(C)C)NC)C(=O)N[C@@H](CC(N)=O)C(=O)N[C@H]5C(=O)N[C@H]3C(=O)N[C@H](C(=O)N[C@H](C(=O)O)c5cc(O)cc(O)c5-c5cc3ccc5O)[C@H](O)c3ccc(c(Cl)c3)O4)O[C@H](CO)[C@@H](O)[C@@H]2O)O[C@@H](C)[C@H]1O)C(=O)O (stereo not given in full)
- IC50 [1]: 128 µg/mL (≈ 80.3 µM)
- IC50 [2]: 64 µg/mL (≈ 40.2 µM)

Structure (SMILES): CN[C@H](CC(C)C)C(=O)N[C@H]1C(=O)N[C@@H](CC(N)=O)C(=O)N[C@H]2C(=O)N[C@H]3C(=O)N[C@H](C(=O)N[C@H](C(=O)O)c4cc(O)cc(O)c4-c4cc3ccc4O)[C@H](O)c3ccc(c(Cl)c3)Oc3cc2cc(c3O[C@@H]2O[C@H](CO)[C@@H](O)[C@H](O)[C@H]2O[C@H]2C[C@](C)(NCc3ccc(-c4ccc(Cl)cc4)cc3)[C@H](O)[C@H](C)O2)Oc2ccc(cc2Cl)[C@H]1O
- IC50 [1]: 2 µg/mL (≈ 1.21 µM)
- IC50 [2]: < 0.125 µg/mL

Structure (SMILES): CCCCOC(CN[C@@]1(C)C[C@H](O[C@H]2[C@H](Oc3c4cc5cc3Oc3ccc(cc3Cl)[C@@H](O)[C@@H](NC(=O)[C@@H](CC(C)C)NC)C(=O)N[C@@H](CC(N)=O)C(=O)N[C@H]5C(=O)N[C@H]3C(=O)N[C@H](C(=O)N[C@H](C(=O)O)c5cc(O)cc(O)c5-c5cc3ccc5O)[C@H](O)c3ccc(c(Cl)c3)O4)O[C@H](CO)[C@@H](O)[C@@H]2O)O[C@@H](C)[C@H]1O)C(=O)OC (stereo not given in full)
- IC50 [1]: 64 µg/mL (≈ 39.8 µM)
- IC50 [2]: 16 µg/mL (≈ 9.95 µM)

Structure (SMILES): CN[C@H](CC(C)C)C(=O)N[C@H]1C(=O)N[C@@H](CC(N)=O)C(=O)N[C@H]2C(=O)N[C@H]3C(=O)N[C@H](C(=O)N[C@H](C(=O)O)c4cc(O)cc(O)c4-c4cc3ccc4O)[C@H](O)c3ccc(c(Cl)c3)Oc3cc2cc(c3O[C@@H]2O[C@H](CO)[C@@H](O)[C@H](O)[C@H]2O[C@H]2C[C@](C)(NCC(OCc3ccccc3)C(=O)OC)[C@H](O)[C@H](C)O2)Oc2ccc(cc2Cl)[C@H]1O (stereo not given in full)
- IC50 [1]: 32 µg/mL (≈ 19.5 µM)
- IC50 [2]: 8 µg/mL (≈ 4.87 µM)

Structure (SMILES): CCCCCCOC(CN[C@@]1(C)C[C@H](O[C@H]2[C@H](Oc3c4cc5cc3Oc3ccc(cc3Cl)[C@@H](O)[C@@H](NC(=O)[C@@H](CC(C)C)NC)C(=O)N[C@@H](CC(N)=O)C(=O)N[C@H]5C(=O)N[C@H]3C(=O)N[C@H](C(=O)N[C@H](C(=O)O)c5cc(O)cc(O)c5-c5cc3ccc5O)[C@H](O)c3ccc(c(Cl)c3)O4)O[C@H](CO)[C@@H](O)[C@@H]2O)O[C@@H](C)[C@H]1O)C(=O)O (stereo not given in full)
- IC50 [1]: 8 µg/mL (≈ 4.93 µM)
- IC50 [2]: 4 µg/mL (≈ 2.47 µM)

Structure (SMILES): CN[C@H](CC(C)C)C(=O)N[C@H]1C(=O)N[C@@H](CC(N)=O)C(=O)N[C@H]2C(=O)N[C@H]3C(=O)N[C@H](C(=O)N[C@H](C(=O)O)c4cc(O)cc(O)c4-c4cc3ccc4O)[C@H](O)c3ccc(c(Cl)c3)Oc3cc2cc(c3O[C@@H]2O[C@H](CO)[C@@H](O)[C@H](O)[C@H]2O[C@H]2C[C@](C)(NCC(OCc3ccc(-c4ccc(Cl)cc4)cc3)C(=O)OC)[C@H](O)[C@H](C)O2)Oc2ccc(cc2Cl)[C@H]1O (stereo not given in full)
- IC50 [1]: 2 µg/mL (≈ 1.14 µM)
- IC50 [2]: < 0.125 µg/mL

Structure (SMILES): CN[C@H](CC(C)C)C(=O)N[C@H]1C(=O)N[C@@H](CC(N)=O)C(=O)N[C@H]2C(=O)N[C@H]3C(=O)N[C@H](C(=O)N[C@H](C(=O)O)c4cc(O)cc(O)c4-c4cc3ccc4O)[C@H](O)c3ccc(c(Cl)c3)Oc3cc2cc(c3O[C@@H]2O[C@H](CO)[C@@H](O)[C@H](O)[C@H]2O[C@H]2C[C@](C)(N)[C@H](O)[C@H](C)O2)Oc2ccc(cc2Cl)[C@H]1O [VANCOMYCIN]
- IC50 [1]: 8 µg/mL (≈ 5.52 µM)
- IC50 [2]: 2 µg/mL (≈ 1.38 µM)
